Test results published in patent publication US20200345746A1, “Oxazine Derivative for Use in the Prevention of Alzheimer's Disease in at Risk Patents” (Novartis AG, priority 2016, published 2020).
Read-outs that look alike come from different tables or passages of the source.

How the values were obtained:
Aβ40 = experiment: First-in-human study: Aβ40 in CSF; type: in vivo; conditions: for Aβ40 % change from baseline, Mean (SD) / Aβ40 % change from baseline, Median: CSF, 2 weeks; for lowering of CSF Aβ40 concentrations, up to: healthy elderly subjects
Experimental: The purpose of this study was to determine the single and multiple maximum tolerated dose of Compound 1 and to assess the pharmacokinetic/pharmacodynamic (PK/PD) relationship using Aβ in CSF as primary PD biomarker.
Pharmacodynamic assessments using Aβ concentrations in CSF as primary biomarker of drug action were also been applied in healthy elderly subjects. Dose-dependent lowering of Aβ40 concentrations was determined up to approximately 80% and 90% after single and multiple dosing, respectively (Tables 14 and 15, FIG. 9).
In the completed first-in-human and 3-month dose-ranging safety and tolerability clinical studies described in Examples 5 and 6, Aβ concentrations in CSF were obtained by means of lumbar punctures before the first dose (baseline) and respectively after 2 weeks and 3 months of multiple dosing. ApoE4 genotype also was obtained in the subjects who consented. The percent change from baseline in Aβ40 and Aβ42 concentrations was calculated in subjects who took the study treatment and had no major protocol deviation with potential impact on the evaluation of the pharmacodynamic effect. Tables 18 to 21 below provide summary statistics of the percent change from baseline by treatment group and ApoE genotype (E4 heterozygotes versus E4 non-carriers). Only one subject with CSF data was E4 homozygote (from the 3-month dose-ranging safety and tolerability study).

[1] = 3-month dose-ranging study: plasma pharmacokinetics (Cmax,ss); type: in vivo, human; conditions: Day 91, 85 mg qd.
[2] = in vivo; for AUCblood (AUC0-24 h): po
From the text: Blood samples were used to analyze whole-blood compound levels and were obtained either from tail-vein during the in-life part into EDTA tubes (CB300, Sarstedt, Germany) or from trunk blood at the day of necropsy into EDTA Eppendorf tubes (Milian S A, CatNoTOM-14, Fisher Scientific, Wohlen, Switzerland), or into serum tubes (CB300Z, Sarstedt, Nümbrecht, Germany).
Brain was removed immediately after decapitation, rinsed with saline and sectioned sagitally down the midline. The left half of the cerebellum was used to analyze compound level and was placed into a glass tube (Chromacol, 125×5-SV T051, Welwyn Garden City, United Kingdom), weighed and frozen in dry-ice, the left half of the forebrain (without olfactory bulb) was used for Aβ analysis, and was frozen on a metal plate on dry ice and placed into protein Lo-bind tube (003 0108.116, Eppendorf, Hamburg, Germany).
Ventral and dorsal skin were taken to analyze compound level, weighed and frozen on dry-ice.
Brain samples were mixed with 2 volumes of KH2PO4 buffer and homogenized using the Covaris® device. Skin samples were mixed with approx. 6-fold volumes of methanol/water and homogenized using a Precellys tube. Either 30 μL of blood, brain or skin homogenate were spiked with a structurally related internal standard and subsequently mixed with an at least 6-fold excess volume acetonitrile for protein precipitation. The supernatant was injected directly into the LC/MS/MS system for analysis.
For tissue exposure, only data at 4 and 24 h were available.

[3] = multiple-dose 10 mg, Day 15 (24 h post last dose)
[4] = multiple-dose 30 mg, Day 15 (24 h post last dose)
[5] = multiple-dose 90 mg, Day 15 (24 h post last dose)
[6] = multiple-dose 300 mg, Day 15 (24 h post last dose)

C[C@@]1(c2nc(NC(=O)c3ncc(C(F)(F)F)cc3Cl)ccc2F)CO[C@@](C)(C(F)(F)F)C(N)=N1 [Compound 1, N-(6-((3R,6R)-5-amino-3,6-dimethyl-6-(trifluoromethyl)-3,6-dihydro-2H-1,4-oxazin-3-yl)-5-fluoropyridin-2-yl)-3-chloro-5-(trifluoromethyl)picolinamide]
Aβ40 % change from baseline, Mean (SD) (Aβ40; 10 mg, E4 heterozygotes): −56 (10) %
Aβ40 % change from baseline, Median (Aβ40; 10 mg, E4 heterozygotes): −53%
Aβ40 % change from baseline, Mean (SD) (Aβ40; 10 mg, E4 non-carriers): −59 (7) %
Aβ40 % change from baseline, Median (Aβ40; 10 mg, E4 non-carriers): −61%
Aβ40 % change from baseline, Mean (SD) (Aβ40; 30 mg, E4 non-carriers): −80 (4) %
Aβ40 % change from baseline, Median (Aβ40; 30 mg, E4 non-carriers): −81%
Aβ40 % change from baseline, Mean (SD) (Aβ40; 90 mg, E4 heterozygotes): −90 (2) %
Aβ40 % change from baseline, Median (Aβ40; 90 mg, E4 heterozygotes): −90%
Aβ40 % change from baseline, Mean (SD) (Aβ40; 90 mg, E4 non-carriers): −89 (2) %
Aβ40 % change from baseline, Median (Aβ40; 90 mg, E4 non-carriers): −90%
Aβ40 % change from baseline, Mean (SD) (Aβ40; 300 mg, E4 heterozygotes (n 1)): −93%
Aβ40 % change from baseline, Median (Aβ40; 300 mg, E4 heterozygotes (n 1)): −93%
Aβ40 % change from baseline, Mean (SD) (Aβ40; 300 mg, E4 non-carriers): −94 (1) %
Aβ40 % change from baseline, Median (Aβ40; 300 mg, E4 non-carriers): −94%
lowering of CSF Aβ40 concentrations, up to (Aβ40; multiple dosing): ~90%
lowering of CSF Aβ40 concentrations, up to (Aβ40; single dosing): approximately 80%
Aβ40 in CSF percent change from baseline, Mean (SD) (Aβ40; [3]): −60.1 (9.91) %
Aβ40 in CSF percent change from baseline, Median (Aβ40; [3]): −61.5%
Aβ40 in CSF percent change from baseline, Mean (SD) (Aβ40; [4]): −80.0 (3.89) %
Aβ40 in CSF percent change from baseline, Median (Aβ40; [4]): −80.2%
Aβ40 in CSF percent change from baseline, Mean (SD) (Aβ40; [5]): −88.2 (3.07) %
Aβ40 in CSF percent change from baseline, Median (Aβ40; [5]): −89.1%
Aβ40 in CSF percent change from baseline, Mean (SD) (Aβ40; [6]): −93.6 (0.61) %
Aβ40 in CSF percent change from baseline, Median (Aβ40; [6]): −93.5%
Aβ40 in CSF percent change from baseline, Mean (SD) (Aβ40; single-dose 10 mg, 12 h): −11.6 (8.31) %
Aβ40 in CSF percent change from baseline, Median (Aβ40; single-dose 10 mg, 12 h): −12.5%
Aβ40 in CSF percent change from baseline, Min-Max (Aβ40; single-dose 10 mg, 12 h): −21-1%
Aβ40 in CSF percent change from baseline, Mean (SD) (Aβ40; single-dose 10 mg, 24 h): −15.0 (10.21) %
Aβ40 in CSF percent change from baseline, Median (Aβ40; single-dose 10 mg, 24 h): −14.3%
Aβ40 in CSF percent change from baseline, Min-Max (Aβ40; single-dose 10 mg, 24 h): −31-−4%
Aβ40 in CSF percent change from baseline, Mean (SD) (Aβ40; single-dose 10 mg, 34 h): −9.7 (14.72) %
Aβ40 in CSF percent change from baseline, Median (Aβ40; single-dose 10 mg, 34 h): −12.5%
Aβ40 in CSF percent change from baseline, Min-Max (Aβ40; single-dose 10 mg, 34 h): −25-10%
Aβ40 in CSF percent change from baseline, Mean (SD) (Aβ40; single-dose 90 mg, 12 h): −14.2 (35.83) %
Aβ40 in CSF percent change from baseline, Median (Aβ40; single-dose 90 mg, 12 h): −28.0%
Aβ40 in CSF percent change from baseline, Min-Max (Aβ40; single-dose 90 mg, 12 h): −36-58%
Aβ40 in CSF percent change from baseline, Mean (SD) (Aβ40; single-dose 90 mg, 24 h): −44.8 (12.48) %
Aβ40 in CSF percent change from baseline, Median (Aβ40; single-dose 90 mg, 24 h): −49.2%
Aβ40 in CSF percent change from baseline, Min-Max (Aβ40; single-dose 90 mg, 24 h): −55-−25%
Aβ40 in CSF percent change from baseline, Mean (SD) (Aβ40; single-dose 90 mg, 34 h): −50.0 (8.87) %
Aβ40 in CSF percent change from baseline, Median (Aβ40; single-dose 90 mg, 34 h): −45.4%
Aβ40 in CSF percent change from baseline, Min-Max (Aβ40; single-dose 90 mg, 34 h): −60-−41%
Aβ40 in CSF percent change from baseline, Mean (SD) (Aβ40; single-dose 300 mg, 12 h): −35.8 (16.40) %
Aβ40 in CSF percent change from baseline, Median (Aβ40; single-dose 300 mg, 12 h): −44.1%
Aβ40 in CSF percent change from baseline, Min-Max (Aβ40; single-dose 300 mg, 12 h): −54-−13%
Aβ40 in CSF percent change from baseline, Mean (SD) (Aβ40; single-dose 300 mg, 24 h): −68.3 (10.65) %
Aβ40 in CSF percent change from baseline, Median (Aβ40; single-dose 300 mg, 24 h): −72.5%
Aβ40 in CSF percent change from baseline, Min-Max (Aβ40; single-dose 300 mg, 24 h): −79-−52%
Aβ40 in CSF percent change from baseline, Mean (SD) (Aβ40; single-dose 300 mg, 34 h): −78.3 (4.75) %
Aβ40 in CSF percent change from baseline, Median (Aβ40; single-dose 300 mg, 34 h): −79.3%
Aβ40 in CSF percent change from baseline, Min-Max (Aβ40; single-dose 300 mg, 34 h): −84-−69%
Aβ40 in CSF percent change from baseline, Mean (SD) (Aβ40; single-dose 750 mg, 12 h): −36.2 (13.58) %
Aβ40 in CSF percent change from baseline, Median (Aβ40; single-dose 750 mg, 12 h): −38.6%
Aβ40 in CSF percent change from baseline, Min-Max (Aβ40; single-dose 750 mg, 12 h): −53-−10%
Aβ40 in CSF percent change from baseline, Mean (SD) (Aβ40; single-dose 750 mg, 24 h): −67.4 (15.54) %
Aβ40 in CSF percent change from baseline, Median (Aβ40; single-dose 750 mg, 24 h): −70.6%
Aβ40 in CSF percent change from baseline, Min-Max (Aβ40; single-dose 750 mg, 24 h): −82-−36%
Aβ40 in CSF percent change from baseline, Mean (SD) (Aβ40; single-dose 750 mg, 34 h): −79.1 (8.88) %
Aβ40 in CSF percent change from baseline, Median (Aβ40; single-dose 750 mg, 34 h): −82.3%
Aβ40 in CSF percent change from baseline, Min-Max (Aβ40; single-dose 750 mg, 34 h): −87-−60%
Cmax, ss, Mean [1]: 602 ng/mL
AUCbrain (AUC0-24 h) ([2]; C57BL/6, mouse, 8 umol/kg): 11.61 µmol·h/kg
AUCbrain (AUC0-24 h) ([2]; C57BL/6, mouse, 50 umol/kg): 88.93 µmol·h/kg
reduction of blood exposure, last day vs beginning of experiment ([2]; C57BL/6, mouse, 8 weeks): around 35%
AUCblood (AUC0-24 h) ([2]; C57BL/6, mouse, 8 umol/kg): 3.49 µM·h
AUCblood (AUC0-24 h) ([2]; C57BL/6, mouse, 50 umol/kg): 18.53 µM·h
rel. AUCdorsal skin ([2]; mouse): 12.6
rel. AUCventral skin ([2]; mouse): 16.8
AUCdorsal skin (AUC0-24 h) ([2]; mouse, 8 umol/kg): 54.3 µmol·h/kg
AUCventral skin (AUC0-24 h) ([2]; mouse, 8 umol/kg): 78.29 µmol·h/kg
AUCdorsal skin (AUC0-24 h) ([2]; mouse, 50 umol/kg): 271.6 µmol·h/kg
AUCventral skin (AUC0-24 h) ([2]; mouse, 50 umol/kg): 308.7 µmol·h/kg
